This is an account of results in patent US20060107336A1, “Nonbacterial prostatitis model animal” (priority 2002, published 2006).

The test system of data set [1] is prostate tissue of male Wistar rats. On the procedure: 18 male Wistar rats at the age of 12-weeks-old were divided into 3 groups (test group, comparative group, and negative control group; 6 rats per group). The right inguinal region of each test group rat was incised under ether anesthesia to expose the prostate. Beneath the prostatic capsule of the right lateral lobe was injected 100 μl of sterilized 0.4 N hydrochloric acid physiological saline (a solution prepared by diluting hydrochloric acid with physiological saline to a concentration of 0.4 N, the same applies hereinbelow). The right inguinal region of each comparative group rat was incised in the same manner under ether anesthesia, and 100 μl of 0.4 N hydrochloric acid physiological saline was injected into the right vas deferens thus exposed. The peritoneum and the skin of the rats were sutured with a suture thread. To prevent operational infection, a kanamycin-containing aqueous solution was sprayed onto the site of the incision, and a physiological saline solution containing cefazolin sodium was injected into the femoral muscle in an amount of 7 mg/kg body weight. The control group refers to untreated rats (normal rats) subjected to neither an incisional operation nor hydrochloric acid injection.
The prostate, bladder and urethra were sampled from the rats of respective groups prepared in 1-1) above (test group, comparative group, and control group) to prepare tissue specimens thereof for the evaluation of change in tissue.
Specifically, the rats of the test group and the comparative group were euthanized by exsanguination under ether anesthesia 6 hours (2 rats per group), 4 days (2 rats per group), or 8 days (2 rats per group) after hydrochloric acid injection. The prostate, bladder and urethral tissues were taken out as a lump, and the tissues were fixed with 4% paraformaldehyde. The rats of the control group were subjected to the same treatment.
The frozen blocks were sliced in a cryostat to a thickness of 5 to 6 μm to prepare slide preparations of the tissue sections. The slide preparations were stained with hematoxylin-eosin (H.E), and the appearance of the tissues was observed under a microscope.
In the figures, sample code N refers to the tissue samples obtained from the control group (nonhydrochloric acid-injected rats), and sample code P refers to the tissue samples obtained from the test group (rats injected with hydrochloric acid beneath the prostatic capsules).
In the figures, sample code Y refers to tissue samples obtained from the comparative group (rats injected with hydrochloric acid into the vas deferens).

Data set [2] concerns bladder function of male Wistar rats. The settings on record: 8th day of rearing.
Where [3] appears, read: 100 μl 0.4 N beneath prostatic capsule.
Setting [4] is: 100 μl 0.4 N into the vas deferens, 6 hours after injection.
Where [5] appears, read: 0.1, 0.2 and 0.4 N beneath prostatic capsule.
Where [6] appears, read: 100 μl 0.2 N beneath prostatic capsule.

SMILES strings stand for the structures. Where two headings read alike, the source gives them in different places.

For the molecule `Cl` [hydrochloric acid], in data set [1] (setting [3]), the “urethral and bladder tissue damage extending from the prostate” value is “no evidence of tissue damage”. In addition, the “localized bleeding and nerve cell tigrolysis in the stroma of the prostate dorsolateral lobes” value in data set [1] (100 μl 0.4 N beneath prostatic capsule, 6 hours after injection) was “slight (+) to moderate (++)”. Moreover, the “hyperplasia and fibrosis of the fibroblast, and inflammatory cellular infiltration in the stroma of the prostate dorsolateral lobes” value in data set [1] (100 μl 0.4 N beneath prostatic capsule, 4 days after injection) is listed as “moderate (++) to severe (+++)”. Moreover, the prostate tissue damage result in data set [1] (100 μl 0.4 N beneath prostatic capsule, 8 days after injection) is recorded as “still observable”. The “loss of glandular epithelial cells, peeling of epithelium, degeneration/necrosis, and presence of erythrocytes at the glandular cavities of the prostate dorsolateral lobes” value in data set [1] (100 μl 0.4 N injected beneath prostatic capsule of right lateral lobe, 6 hours after injection) is recorded as “slight (+) to moderate (++) to severe (+++)”. Besides, the “epithalaxia in the glandular cavities of the prostate dorsolateral lobes” value in data set [1] (100 μl 0.4 N injected into the vas deferens (comparative group), 6 hours after injection) is “severe (+++)”. For the same molecule, in data set [1] (setting [4]), the “bleeding in the stromata of the glandular tissues of the ampulla ductus deferentis” value is given as “severe (+++)”; the “epithalaxia, degeneration/necrosis and bleeding in the glandular cavities of the ampulla ductus deferentis” value was “severe (+++)”; the “localized bleeding in the stroma of the prostate dorsolateral lobes” value is “severe (+++)”. Also, the prostate tissue damage result in data set [1] (100 μl 0.4 N into the vas deferens, 4 days after injection) is listed as “did not exhibit such prostate tissue damage”. The “damage at the glandular tissues of the ampulla ductus deferentis” value in data set [1] (100 μl 0.4 N into the vas deferens, at least 4 days after injection) is given as “did not exhibit such damage”. In data set [1] (injected into the vas deferens of rats (animal model (5))), the “development of prostatitis, pathohistological point of view” value is “only to a very slight extent”. Besides, in data set [2] (setting [5]), the “correlation between concentration and change in the weight of the prostate” value was “no evidence of correlation”; the “ratio of bladder weight to body weight compared with the control group” value was “comparable or significantly higher”; the “ratio of prostate ventral lobe weight to body weight compared with the control group” value was “comparable or significantly higher”; the “weight of the bladder in relation to concentration injected” value is reported as “increased in accordance with the concentration”. The “volume of residual urine compared with the control group” value in data set [2] (100 μl 0.1 N beneath prostatic capsule) is “no residual urine”. Besides, in data set [2] (setting [6]), the “urination interval compared with the control group” value is listed as “significantly shorter”, the “volume of residual urine compared with the control group” value is recorded as “significantly higher” and the “volume of urine per urination compared with the control group” value was “smaller”. Besides, in data set [2] (setting [3]), the “urination interval compared with the control group” value is on record as “significantly shorter” and the “volume of urine per urination compared with the control group” value is on record as “smaller”.
